Test [1] can be described thus: Binding affinity to CRF (unknown origin) receptor assessed as inhibition constant.
In test [2] the target is corticotropin-releasing factor receptor (rat). The test is described as follows: Binding affinity to rat CRF receptor assessed as inhibition constant.

By Ki is commonly meant a measure of affinity in units of concentration, obtained from inhibition or displacement. Take `CCCC(CCC)c1c(CC)nn2c(-c3cc(OC)c(OC)cc3Cl)nc(C)nc12`: the Ki in test [1] was determined as 0.7 nM.
With `CCCC(COC)c1c(CC)nn2c(-c3ccc(Cl)cc3Cl)nc(C)nc12` (stereo not given), the Ki in test [2] came to 1.4 nM.
For the compound `CCCC(C)c1c(CC)nn2c(-c3cc(OC)c(OC)cc3Cl)nc(C)nc12` (stereo not given), the Ki in test [2] came to 2.6 nM.
Still for that read-out and setting: the same measure for `CCCC(COC)c1c(CC)nn2c(-c3cc(OC)c(OC)cc3Cl)nc(C)nc12` (stereo not given): 2 nM.
As for `CCCC(CCC)c1c(CC)nn2c(-c3ccc(Cl)cc3Cl)nc(C)nc12`, the Ki in test [2] amounted to 1 nM.

The values are drawn from BindingDB's records for PubMed 34147747 (n/a, 2021).
